Measurements published in patent publication US4698347A, “Octahydro-oxazolo[4,5-g]quinolines derivatives and decahydro quinoline intermediates and their use as dopamine D-2 agonists” (Eli Lilly and Company, priority 1986, dated 1987).
“And” between values parts separate entries of the source, which are not always exact repeats. Identical values can stand only once.

Key:
[1] = test system: spontaneously hypertensive rats (SHR); assay: Blood pressure and heart rate in anesthetized spontaneously hypertensive rats (SHR), i.v.; assay type: in vivo, rat; conditions: for % change in BP (mean arterial blood pressure ± standard error) / % change in heart rate (± standard error): four rats
Protocol: The compounds of this invention I, and III are effective in the treatment of hypertension.
Adult male spontaneously hypertensive rats (SHR) (Taconic Farms, Germantown, N.Y.), weighing approximately 300 g. were anesthetized with pentobarbital sodium (60 mg./kg., i.p.). The trachea was cannulated and SHR respired room air. Pulsatile arterial blood pressure was measured from a cannulated carotid artery using a Statham transducer (P23 ID). Mean arterial blood pressure was calculated as diastolic blood pressure plus 1/3 pulse pressure. Cardiac rate was monitored by a cardiotachometer which was triggered by the systolic pressure pulse. Drug solutions were administered i.v. through a catheter placed in a femoral vein. Arterial blood pressure and cardiac rate were recorded on a multichannel oscillograph (Beckman, Model R511A). Fifteen minutes were allowed to elapse following surgery for equilibration of the preparation.
In the table, column 1 gives the name of the drug, column 2 dose in μg/kg, column 3 percent change in mean arterial blood pressure plus or minus standard error and column 4, percent change in heart rate plus or minus standard error. Four rats were used at each dose level.

[2] = test system: apomorphine binding sites; assay: Inhibition of 3H-apomorphine binding (vs spiperone sites); conditions: printed as 40 to 1
Description: With trans-(±)-2-methyl-5-n-propyl-4,4a,5,6,7,8,8a,9-octahydrooxazolo[4,5-g]quinoline; the ratio of binding, to apomorphine sites vs spiperone sites is 40 to 1.

| SMILES | % change in BP (mean arterial blood pressure ± standard error) ([1]; dose 0.1 μg/kg) [%] | % change in heart rate (± standard error) ([1]; dose 0.1 μg/kg) [%] | % change in BP (mean arterial blood pressure ± standard error) ([1]; dose 1 μg/kg) [%] | % change in heart rate (± standard error) ([1]; dose 1 μg/kg) [%] | % change in BP (mean arterial blood pressure ± standard error) ([1]; dose 10 μg/kg) [%] | % change in heart rate (± standard error) ([1]; dose 10 μg/kg) [%] | Duration of change in BP ([1]; dose 100 μg/kg) | % change in heart rate (± standard error) ([1]; dose 100 μg/kg) | ratio of binding, to apomorphine sites vs spiperone sites [2] | % change in BP (mean arterial blood pressure ± standard error) ([1]; dose 100 μg/kg) [%] | Duration of change in BP ([1]; dose 1000 μg/kg) | % change in BP (mean arterial blood pressure ± standard error) ([1]; dose 1000 μg/kg) [%] | % change in heart rate (± standard error) ([1]; dose 1000 μg/kg) [%] |
| --- | --- | --- | --- | --- | --- | --- | --- | --- | --- | --- | --- | --- | --- |
| CCCN1CCC[C@H]2Cc3nc(N)oc3C[C@@H]21 (racemic) [Trans-(±)-2-amino-5-n-propyl-4,4a,5,6,7,8,8a,9-octahydro-oxazolo[4,5-g]quinoline] | -18.3 ± 5.7 | -8.5 ± 2.2 | -8.6 ± 1.6 | -4.4 ± 0.9 | -15.1 ± 1.1 | -5.6 ± 0.7 | * (Duration of 15 min or greater) | -17.5 ± 2.3% and -19.1 ± 3.4% | – | – | – | – | – |
| CCCN1CCC[C@H]2Cc3nc(C)oc3C[C@@H]21 (racemic) [Trans-(±)-2-methyl-5-n-propyl-4,4a,5,6,7,8,8a,9-octahydro-oxazolo[4,5-g]quinoline] | – | – | -3.2 ± 0.5 | -2.4 ± 0.8 | -7.0 ± 1.0 | -2.8 ± 0.4 | * (Duration of 15 min or greater) | -16.1 ± 7.6% | 40 | -19.6 ± 1.4 | * (Duration of 15 min or greater) | -26.2 ± 4.3 | -23.6 ± 4.4 |
| CCCN1CCC[C@H]2Cc3ncoc3C[C@@H]21 (racemic) [trans-(±)-5-n-propyl-4,4a,5,6,7,8,8a,9-octahydro-oxazolo[4,5-g]quinoline] | – | – | -5.0 ± 1.2 | -3.6 ± 0.5 | -10.2 ± 1.0 | -4.6 ± 0.6 | * (Duration of 15 min or greater) | -28.5 ± 2.6% | – | -27.4 ± 20 | * (Duration of 15 min or greater) | -37.7 ± 4.9 | -31.8 ± 3.7 |
